According to PMC9951879, “Synthesis of New Shogaol Analogues as NRF2 Activators and Evaluation of Their Anti-Inflammatory Activity, Modes of Action and Metabolic Stability” (Antioxidants, 2023):

How the values were obtained:
[1] = Liver microsomal stability, rat; assay type: in vitro ADME; conditions: rat liver microsomes, 1 μM (verapamil 0.5 μM)
Description: (§1) The liver microsomes of humans, rats, and mice were purchased from Merck (human, #M0567; rat, #M9066; mouse, #M9441). The metabolic stability of 6-shogaol and STCs (1 μM effective concentration; 5 μL) was mixed with liver microsomes (0.5 mg mL^−1; 445 μL) in a microcentrifuge tube. Verapamil (0.5 μM) was used as the positive control. The microsome and compound mixture were shaken on a plate shaker for 5 min to ensure homogeneity. NADPH (1 mM; 50 μL) was added to the mixture to start the metabolic reaction. The reaction mixture was incubated at 37 °C for 0, 3, 6, 15, 30, 45, and 60 min. The mixture (20 μL) was sampled and quenched with 180 μL of acetonitrile with internal standard (Donepezil 50 ng/mL) to terminate the metabolic reaction at each time point. Ultrapure water (80 μL) was added, and contents in the microcentrifuge tubes were centrifuged at 3800 rpm at 4 °C for 10 min. […] Each set of experiments was repeated three times in human, rat, and mouse liver microsomes. The concentration of the compounds versus time was plotted to determine the elimination rate constant (Kel). The intrinsic clearance (Clint) and half-life (t1/2) were calculated using the following equations.

[2] = tested on: NAD(P)H quinone oxidoreductase 1 (NQO1); assay: Prochaska microtiter plate bioassay, NQO1 induction in Hepa-1c1c7 cells; assay type: cell-based, mouse; conditions: Mus musculus, Hepa-1c1c7, 48 h, Hepa-1c1c7 cells, 48 h; read-out: CD (concentration required to double the NQO1 level)
Description: The effect of shogaol thiophene compounds (STCs) on NRF2 activation is determined by measuring the NAD(P)H quinone oxidoreductase 1 (NQO1) inducer activity, as reported in our previous studies. The mouse hepatoma cells (Hepa-1c1c7, 1 × 10^4 per well) were incubated with STCs (10, 1, 0.1, 0.01, and 0.001 µM) for 48 h. The cells were lysed using digitonin (0.8 mg/mL and 2 mM EDTA; Acros, UK), and the protein concentration was determined using Bradford’s assay kit (Thermo Fisher Scientific, USA). The cell lysate was incubated with a reaction mixture of 0.5 M Tris-Cl buffer (Calbiochem, USA), 7.5 mM FAD (Acros, UK), 150 mM glucose-6-phosphate (Calbiochem, San Diego, CA, USA), 2 U/mL glucose-6-phosphate dehydrogenase (Calbiochem, USA), 50 mM NADP+ (Sigma Aldrich, USA), 25 mM menadione (Sigma Aldrich, USA), and 0.7 mM MTT (Sigma Aldrich, USA) at 37 °C for 5 min. The absorbance was recorded at 610 nm using a microplate reader (Spectramax M3, Molecular Devices, San Jose, CA, USA), and the values were normalised to the total protein content.

GSK-3β = target: T1, GSK-3β (Homo sapiens, UniProt P49841); assay: GSK-3β kinase ADP-Glo assay; assay type: biochemical; conditions: ATP 25 μM, read-out: IC50, GSK-3β enzyme activity
T1 construct: purchased Promega
T1 sequence (P49841 whole entry): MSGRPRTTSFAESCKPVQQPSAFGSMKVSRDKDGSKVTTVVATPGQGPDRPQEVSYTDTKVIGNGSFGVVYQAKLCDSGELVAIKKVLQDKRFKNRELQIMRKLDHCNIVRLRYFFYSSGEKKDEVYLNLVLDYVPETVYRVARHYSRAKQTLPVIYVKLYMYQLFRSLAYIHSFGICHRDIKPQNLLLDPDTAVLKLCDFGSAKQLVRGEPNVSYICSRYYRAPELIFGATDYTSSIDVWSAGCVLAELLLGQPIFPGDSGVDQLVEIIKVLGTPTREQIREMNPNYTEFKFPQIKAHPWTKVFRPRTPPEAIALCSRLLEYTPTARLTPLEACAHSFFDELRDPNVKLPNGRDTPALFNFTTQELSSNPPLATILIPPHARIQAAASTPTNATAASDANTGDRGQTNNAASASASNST
Description: The effect of STCs on GSK-3β activity was determined using GSK-3β kinase enzyme (Promega, WI, USA) and ADP-Glo^TM kinase assay (Promega, USA) following the manufacturer’s protocol and reported method. The STCs were dissolved in the kinase buffer to prepare different concentrations (10, 1, 0.1, 0.01, and 0.001 μM). One microliter of the test compounds was added to each well (384 well plate), followed by the addition of 2 μL of GSK-3β kinase (1 ng), 2 μL of the GSK-3β substrate (0.4 μg), and 2 μL of the ATP (25 μM), and incubated for 60 min. Then, 5 μL of ADP-Glo^TM reagent was added and incubated further for 40 min. Then 10 μL of kinase detection reagent was added and incubated for 30 min. The luminescence was recorded using a SpectraMax®L microplate reader (Molecular Devices, San Jose, CA, USA). The IC50 (concentration of the test compound required to produce half-maximal […]) from dose-response curves using non-linear regression analysis using GraphPad Prism (9.5.0; San Diego, CA, USA) software.

KEAP1-NRF2 interaction = target: T2, KEAP1-NRF2 interaction (Homo sapiens, UniProt Q14145); assay: KEAP1-Nrf2 inhibitor screening, fluorescence polarisation assay; assay type: binding; conditions: KEAP1 Kelch domain, read-out: IC50, NRF2-KEAP1 inhibition
T2 construct: purchased BPS Bioscience
T2 sequence (Q14145 2-624 limits assumed): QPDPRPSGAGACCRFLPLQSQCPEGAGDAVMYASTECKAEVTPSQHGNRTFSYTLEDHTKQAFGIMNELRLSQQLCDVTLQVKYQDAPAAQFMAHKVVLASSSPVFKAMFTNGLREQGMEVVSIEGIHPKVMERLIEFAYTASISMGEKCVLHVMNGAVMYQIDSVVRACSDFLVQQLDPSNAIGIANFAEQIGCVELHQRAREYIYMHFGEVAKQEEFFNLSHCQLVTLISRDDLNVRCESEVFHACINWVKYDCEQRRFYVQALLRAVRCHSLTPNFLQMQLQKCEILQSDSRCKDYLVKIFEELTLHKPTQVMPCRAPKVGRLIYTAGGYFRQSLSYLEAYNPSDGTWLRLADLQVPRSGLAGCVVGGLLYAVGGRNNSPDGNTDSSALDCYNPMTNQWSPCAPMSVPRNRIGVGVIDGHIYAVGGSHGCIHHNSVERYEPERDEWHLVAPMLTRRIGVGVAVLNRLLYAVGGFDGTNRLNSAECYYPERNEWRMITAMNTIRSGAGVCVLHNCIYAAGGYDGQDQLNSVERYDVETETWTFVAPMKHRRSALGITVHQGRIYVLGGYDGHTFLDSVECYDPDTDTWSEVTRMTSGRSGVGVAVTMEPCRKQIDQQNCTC
Description: The KEAP1-Nrf2 inhibitor screening assay kit (BPS Bioscience, San Diego, California, USA) was used to determine the effect of STCs in inhibiting KEAP1-NRF2 interaction following the manufacturer’s protocol and our reported method. The STC solutions were diluted with the assay buffer, and 5 μL of the STC solutions were incubated at room temperature for 30 min in the peptide mixture containing 0.5 μL NRF2 peptide (1 μM) and 20 μL KEAP1 (15 ng/μL). The fluorescence polarisation (FP) was measured using a microplate reader at λex 485 nm and λem 530 nm. The following equation was used to determine the per cent KEAP1-NRF2 inhibitory effect of the STCs. Keap1−Nrf2 inhbitory activity %=1−Relative FP of STC/Relative FP of postive control×100

[3] = Liver microsomal stability, mouse; assay type: in vitro ADME; conditions: mouse liver microsomes, 1 μM (verapamil 0.5 μM)
Description: as §1

[4] = Liver microsomal stability, human; assay type: in vitro ADME; conditions: human liver microsomes, 1 μM (verapamil 0.5 μM)
Description: as §1

Row | Compound | Clint [1] | half-life at 1 μM [1] | IC50 (GSK-3β) | IC50 (KEAP1-NRF2 interaction) | Clint [3] | half-life at 1 μM [3] | Clint [4] | half-life at 1 μM [4] | EC (2-fold NQO1 induction) [2]
1 | COc1cc(CCC(=O)/C=C/c2ccsc2)ccc1O [STC1, (E)-5-(4-Hydroxy-3-methoxyphenyl)-1(thiophen-3-yl)pent-1-en-3-one] | 10.63 ± 1.25 mL/min/g liver | 6.85 min | 420 ± 80 nM | 860 ± 110 nM | 11.24 ± 1.43 mL/min/g liver | 6.47 min | 7.15 ± 1.24 mL/min/g liver | 10.2 min | 4.19 ± 0.44 µM
2 | COc1cc(CCC(=O)/C=C/c2sccc2C)ccc1O [STC3, (E)-5-(4-Hydroxy-3-methoxyphenyl)-1-(3-methylthiophen-2-yl)pent-1-en-3-one] | 9.65 ± 1.54 mL/min/g liver | 7.54 min | 240 nM | 540 nM | 9.27 ± 2.14 mL/min/g liver | 7.85 min | 6.18 ± 1.34 mL/min/g liver | 11.8 min | 1.84 ± 0.15 µM
3 | COc1cc(CCC(=O)/C=C/c2cccs2)ccc1O [STC2, (E)-5-(4-Hydroxy-3-methoxyphenyl)-1-(thiophen-2-yl)pent-1-en-3-one] | 9.46 ± 1.85 mL/min/g liver | 7.69 min | 320 nM | 630 nM | 10.64 ± 1.66 mL/min/g liver | 6.84 min | 6.85 ± 1.62 mL/min/g liver | 10.6 min | 2.65 ± 0.27 µM

Further lines, with some results ahead:

Row | Clint [1] | half-life at 1 μM [1] | IC50 (GSK-3β) | IC50 (KEAP1-NRF2 interaction) | Clint [3] | half-life at 1 μM [3] | Clint [4] | half-life at 1 μM [4] | Compound | EC (2-fold NQO1 induction) [2]
4 | 8.17 ± 1.74 mL/min/g liver | 8.91 min | 140 nM | 290 nM | 7.23 ± 1.34 mL/min/g liver | 10.1 min | 5.32 ±1.08 mL/min/g liver | 13.7 min | COc1cc(CCC(=O)/C=C/c2ccc(Br)s2)ccc1O [STC6, (E)-5-(4-Hydroxy-3-methoxyphenyl)-1-(5-bromothiophen-2-yl)pent-1-en-3-one] | 0.42 ± 0.11 µM
5 | 8.52 ± 1.16 mL/min/g liver | 8.54 min | 190 nM | 350 nM | 7.85 ± 2.51 mL/min/g liver | 9.27 min | 6.27 ± 1.44 mL/min/g liver | 11.6 min | CCc1ccc(/C=C/C(=O)CCc2ccc(O)c(OC)c2)s1 [STC7, (E)-5-(4-Hydroxy-3-methoxyphenyl)-1-(5-ethylthiophen-2-yl)pent-1-en-3-one] | 1.48 ± 0.34 µM
6 | 8.79 ± 1.94 mL/min/g liver | 8.28 min | 130 nM | 280 nM | 9.67 ± 1.23 mL/min/g liver | 7.52 min | 6.35 ± 1.79 mL/min/g liver | 11.5 min | COc1cc(CCC(=O)/C=C/c2cc(Br)cs2)ccc1O [STC4, (E)-5-(4-Hydroxy-3-methoxyphenyl)-1-(4-bromothiophen-2-yl)pent-1-en-3-one] | 0.43 ± 0.09 µM
